Measurements from PubChem BioAssay (NCI).
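All cell lines were grown in 96-well plates and treated with compound for 48 hours. TGI denotes the concentration required for complete inhibition of growth.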

Tests used:
Assay in all cases: inhibition of tumour cell growth, NCI panel, 48 h
A549 NSCLC = tested on: A549 NSCLC
ACHN renal = tested on: ACHN renal
HCT-116 colon = tested on: HCT-116 colon
K-562 leukemia = tested on: K-562 leukemia
NCI-H460 lung = tested on: NCI-H460 lung
RPMI-8226 leukemia = tested on: RPMI-8226 leukemia
RXF 393 renal = tested on: RXF 393 renal
SF-268 CNS = tested on: SF-268 CNS
SF-295 CNS = tested on: SF-295 CNS
SK-MEL-28 melanoma = tested on: SK-MEL-28 melanoma
SK-MEL-5 melanoma = tested on: SK-MEL-5 melanoma
DU-145 prostate = tested on: DU-145 prostate
MCF7 breast = tested on: MCF7 breast
MDA-MB-231 breast = tested on: MDA-MB-231 breast
NCI/ADR-RES ovarian = tested on: NCI/ADR-RES ovarian

SMILES	TGI (A549 NSCLC) [µM]	TGI (ACHN renal) [µM]	TGI (HCT-116 colon) [µM]	TGI (K-562 leukemia) [µM]	TGI (NCI-H460 lung) [µM]	TGI (RPMI-8226 leukemia) [µM]	TGI (RXF 393 renal) [µM]	TGI (SF-268 CNS) [µM]	TGI (SF-295 CNS) [µM]	TGI (SK-MEL-28 melanoma) [µM]	TGI (SK-MEL-5 melanoma) [µM]	TGI (DU-145 prostate) [µM]	TGI (MCF7 breast) [µM]	TGI (MDA-MB-231 breast) [µM]	TGI (NCI/ADR-RES ovarian) [µM]
CCC1=CCN(c2cc(C)ccn2)OC1c1ccc(OC)cc1 (centres undefined)	> 100	> 100	71.8	> 100	> 100	62.6	58.1	> 100	70.8	64.9	30.5	–	–	–	–
COc1ccc2nc3cc(Cl)ccc3c(Sc3ccc([N+](=O)[O-])cc3C)c2c1	> 100	> 100	> 100	> 100	> 100	–	> 100	> 100	> 100	> 100	> 100	–	–	–	–
CNC1(c2cc3ccccc3s2)CCCCC1	> 100	> 100	> 100	> 100	35.4	–	67.1	42.8	> 100	–	36	> 100	90.5	71.8	> 100
Cc1cccc(Cl)c1NCC(O)CN1CCN(C)CC1 (centres undefined)	> 100	> 100	> 100	> 100	> 100	–	> 100	> 100	> 100	> 100	> 100	> 100	–	> 100	> 100
Nn1c(C23CC4CC(CC(C4)C2)C3)n[nH]c1=S	> 100	> 100	> 100	> 100	> 100	> 100	> 100	> 100	> 100	> 100	> 100	> 100	–	> 100	> 100
C=CCCON(C(=O)OC(C)(C)C)c1ccccc1	> 100	> 100	> 100	> 100	> 100	> 100	> 100	> 100	> 100	> 100	> 100	> 100	–	> 100	> 100
N[C@@H]1CCN(c2c(F)cc3c(=O)c(C(=O)O)cn4c3c2Oc2c-4ccc3c2ccc2ccccc23)C1	> 100	4.25	–	> 100	2.91	36.3	> 100	> 100	> 100	> 100	> 100	> 100	3.34	–	> 100
Cc1ccc2c(ccc(/C=C/c3ccc(O)c4ncccc34)[n+]2C)c1	44.1	33.1	24.3	83.4	30.3	70.2	37.8	22	34.9	33.1	35.3	> 57.3	–	> 61.8	> 100
CC1(C)C2CCC1(C)C(N/C(Sc1ccccc1)=C(/C(Cl)=C(Cl)Cl)[N+](=O)[O-])C2 (centres undefined)	45.9	26.3	28.8	> 100	32.7	–	–	24.4	27.7	24.9	–	61.1	24	22	30.5
CCC(CC)NC1=C(NC(C)=O)C(=O)c2ccccc2C1=O	> 50	> 50	> 50	> 50	> 50	–	> 50	> 50	> 50	> 50	> 50	–	–	–	–
CCOC1C(Br)Cn2c(=O)c3cc4ccccc4cc3c(=O)n2C1C (centres undefined)	> 100	> 100	> 100	> 100	> 100	> 100	> 100	> 100	> 100	> 100	> 100	–	–	–	–
CC1(C)[C@@H]2CC[C@]1(C)[C@H](OC(=O)CSC#N)C2	> 100	> 100	> 100	–	> 100	–	> 100	> 100	> 100	> 100	> 100	> 100	> 100	> 100	> 100
CCCCCCCC(CC(=O)NC(CO)C(=O)NC(CO)CC(C)C)OC(=O)CC(CCCCCCC)OC(=O)CC(CCCCCCC)OC1OC(C)C(O)C(OC2OC(C)C(OC(C)=O)C(O)C2O)C1O (centres undefined)	23.8	29.2	17.9	34.3	15.6	–	16.9	23.3	24.3	19.4	21.8	24	23.8	20.4	–
C=C(C)C1CCC(C(=O)O)CC1 (centres undefined)	> 100	> 100	> 100	> 100	> 100	> 100	> 100	> 100	> 100	> 100	> 100	> 100	> 100	> 100	–
O=C(NN1C(=O)C(Cl)C1c1ccc(Cl)cc1)c1c(Cl)c(Cl)c(Cl)c(Cl)c1-c1nc2ccccc2[nH]1 (centres undefined)	> 100	43.5	44	> 100	46.4	–	17.9	> 100	> 100	78.7	> 100	42.6	34.4	–	> 100
CN(C)CCOc1ccc([N+](=O)[O-])c2cccnc12	> 100	> 100	> 100	> 100	> 100	–	–	> 100	> 100	> 100	> 100	> 100	> 100	> 100	> 100
S=C(N/N=C/c1ccccn1)N1CCCCC1	> 100	3.44	10.9	45.6	0.457	1.68	3.94	–	> 100	> 100	1.13	> 100	50	–	< 0.0382
